Measured values as given in the NIST ThermoML archive (doi:10.1016/j.jct.2017.03.040).

Assay: mn = molality of the nth substance listed, in mol/kg
Conditions: 100 kPa, Liquid; for speed of sound: Frequency=3 MHz, Single path-length method; for mass density: Vibrating tube method

CC(=O)N[C@@H](CS)C(=O)O [N-acetyl-L-cysteine] + O
Conditions | mass density, 288.15 K [kg/m3] | mass density, 298.15 K [kg/m3] | mass density, 308.15 K [kg/m3] | mass density, 318.15 K [kg/m3] | speed of sound, 288.15 K [m/s] | speed of sound, 298.15 K [m/s] | speed of sound, 308.15 K [m/s] | speed of sound, 318.15 K [m/s]
m1 = 0.09902 | 1003.53 | 1001.37 | 998.26 | 994.33 | 1472.9 | 1501.8 | 1523.8 | 1539.8
m1 = 0.1981 | 1007.96 | 1005.7 | 1002.49 | 998.44 | 1479.4 | 1507 | 1527.9 | 1543.2
m1 = 0.2976 | 1012.41 | 1010.05 | 1006.74 | 1002.57 | 1485.8 | 1512.3 | 1532.1 | 1546.7
m1 = 0.397 | 1016.85 | 1014.39 | 1010.98 | 1006.7 | 1492.3 | 1517.5 | 1536.3 | 1550.2
m1 = 0.4992 | 1021.42 | 1018.86 | 1015.35 | 1010.94 | 1498.9 | 1522.9 | 1540.6 | 1553.8
m1 = 0.5991 | 1025.88 | 1023.22 | 1019.61 | 1015.09 | 1505.4 | 1528.2 | 1544.8 | 1557.3
m1 = 0.6903 | 1029.96 | 1027.21 | 1023.51 | 1018.87 | 1511.3 | 1533 | 1548.6 | 1560.5

N[C@@H](CS)C(=O)O [(R)-2-amino-3-mercaptopropanoic acid] + O
Conditions | mass density, 288.15 K [kg/m3] | mass density, 298.15 K [kg/m3] | mass density, 308.15 K [kg/m3] | mass density, 318.15 K [kg/m3] | speed of sound, 288.15 K [m/s] | speed of sound, 298.15 K [m/s] | speed of sound, 308.15 K [m/s] | speed of sound, 318.15 K [m/s]
m1 = 0.09747 | 1003.7 | 1001.64 | 998.63 | 994.82 | 1474 | 1503.6 | 1525.8 | 1541.9
m1 = 0.1985 | 1008.47 | 1006.41 | 1003.4 | 999.59 | 1481.8 | 1510.9 | 1532.2 | 1547.8
m1 = 0.2986 | 1013.2 | 1011.13 | 1008.12 | 1004.32 | 1489.5 | 1518 | 1538.6 | 1553.6
m1 = 0.3968 | 1017.83 | 1015.77 | 1012.76 | 1008.96 | 1497.1 | 1525.1 | 1544.9 | 1559.3
m1 = 0.4932 | 1022.38 | 1020.32 | 1017.31 | 1013.51 | 1504.5 | 1532 | 1551 | 1564.8
m1 = 0.6 | 1027.42 | 1025.36 | 1022.35 | 1018.55 | 1512.7 | 1539.6 | 1557.8 | 1571
m1 = 0.6922 | 1031.77 | 1029.71 | 1026.7 | 1022.9 | 1519.8 | 1546.2 | 1563.6 | 1576.4

CCCCCn1cc[n+](C)c1.[Br-] [1-pentyl-3-methylimidazolium bromide] + O
Conditions | mass density, 288.15 K [kg/m3] | mass density, 298.15 K [kg/m3] | mass density, 308.15 K [kg/m3] | mass density, 318.15 K [kg/m3] | speed of sound, 288.15 K [m/s] | speed of sound, 298.15 K [m/s] | speed of sound, 308.15 K [m/s] | speed of sound, 318.15 K [m/s]
m1 = 0.005 | 999.3 | 997.23 | 994.23 | 990.42 | 1467.7 | 1497.3 | 1520.3 | 1536.7
m1 = 0.01 | 999.5 | 997.42 | 994.42 | 990.62 | 1468.5 | 1498 | 1520.7 | 1537.4
m1 = 0.03 | 1000.31 | 998.19 | 995.2 | 991.41 | 1470.8 | 1500.3 | 1522.5 | 1539.1
m1 = 0.05 | 1001.11 | 998.96 | 995.98 | 992.21 | 1473.7 | 1502.8 | 1524.6 | 1541
